A value given as a limit tells only on which side of the number the result lay.

The target of this assay is T1, human MC5R (Homo sapiens, UniProt P33032).
T1 construct: purchased Perkin Elmer RBXMC5M400UA
T1 sequence (P33032 whole entry): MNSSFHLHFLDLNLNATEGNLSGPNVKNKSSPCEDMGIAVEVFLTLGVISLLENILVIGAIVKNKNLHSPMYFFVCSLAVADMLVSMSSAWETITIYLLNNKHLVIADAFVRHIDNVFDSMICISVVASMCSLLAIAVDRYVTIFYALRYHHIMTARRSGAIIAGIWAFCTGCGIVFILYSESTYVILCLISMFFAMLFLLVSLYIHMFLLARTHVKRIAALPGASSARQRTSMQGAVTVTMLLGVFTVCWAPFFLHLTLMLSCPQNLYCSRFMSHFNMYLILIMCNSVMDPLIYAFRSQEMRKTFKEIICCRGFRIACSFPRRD
Nature of the assay: Human MC5R radioligand binding assay ([125I] NDP-MSH displacement, hMC5R membranes). The settings on record: hMC5R assay as in Example 102; compounds tested as trifluoroacetate or hydrochloride salts, or as free base. As for the experimental part: After incubation for 10 mins the phosphate buffer containing the iodine was added to NDP-MSH (10 ul at 1 mg/mL) in a separate eppendorf tube. This was incubated for a further 10 mins.
Resuspended membranes were kept on ice until they were added to the wells of the plate.
Assays were performed in 96 well polypropylene plates. […] This was incubated for 1 hr at 37 °C. Non-specific binding was determined with […] NDP-MSH. Plates were filtered using a Tomtec cell harvester with GF/A filters (Wallac) (presoaked in 0.6% polyethylenimine) and washed three times with 1.0 mL ice-cold wash buffer (the above incubation buffer without 1,10-phenanthroline and Complete™ protease inhibitor tablet). The filters were dried in a 37 °C oven, placed in a sample bag and 5 mL Betaplatescint (Wallac) was added. Prepared filters were counted in cassettes in a Microbeta Trilux (Wallac) for 1 min. […] Data analysis was performed using GraphPad Prism 4, employing competition binding with a single site model and a fixed Hill coefficient. The following equation was used: Y = Bottom + (Top-Bottom)/1/10^(X-logEC50), where X = log(concentration) and Y = binding to fit the data.
For the molecule `NCCC[C@@H]1N[C@H](CNC(=O)c2ccc3cc(F)ccc3c2)CCN(CC(c2ccccc2)c2ccccc2)C1=O` [Compound 221, N-(((3S,5S)-3-(3-aminopropyl)-1-(2,2-diphenylethyl)-2-oxo-1,4-diazepan-5-yl)methyl)-6-fluoro-2-naphthamide], the IC50 is < 100 nM. In the case of `N=C(N)NCCC[C@@H]1N[C@H](CNC(=O)/C=C/c2ccc(Cl)cc2Cl)CCN(CC(c2ccccc2)c2ccccc2)C1=O` [Compound 160, (E)-3-(2,4-dichlorophenyl)-N-(((3S,5S)-1-(2,2-diphenylethyl)-3-(3-guanidino-propyl)-2-oxo-1,4-diazepan-5-yl)methyl)acrylamide], the IC50 was < 100 nM. Next, `CC(C)N(CC[C@@H]1N[C@H](CCNC(=O)c2ccc(Cl)c(Cl)c2)CCN(CC(c2ccccc2)c2ccccc2)C1=O)C(C)C` [Compound 363, 3,4-dichloro-N-(2-((3S,5R)-3-(2-(diisopropylamino)ethyl)-1-(2,2-diphenylethyl)-2-oxo-1,4-diazepan-5-yl)ethyl)benzamide]: < 10000 nM; `N=C(N)NCCC[C@@H]1N[C@H](CNC(=O)COc2ccc(Cl)cc2Cl)CCN(CC(c2ccccc2)c2ccccc2)C1=O` [Compound 176, 2-(2,4-dichlorophenoxy)-N-(((3S,5S)-1-(2,2-diphenylethyl)-3-(3-guanidinopropyl)-2-oxo-1,4-diazepan-5-yl)methyl)acetamide]: < 100 nM. As for `N=C(N)NCCC[C@@H]1N[C@H](CNC(=O)CC2CCCCC2)CCN(CC(c2ccccc2)c2ccccc2)C1=O` [Compound 147, 2-cyclohexyl-N-(((3S,5S)-1-(2,2-diphenylethyl)-3-(3-guanidinopropyl)-2-oxo-1,4-diazepan-5-yl)methyl)acetamide], the IC50 was < 1000 nM.

On to `N=C(N)NCCC[C@@H]1N[C@H](CNC(=O)/C=C/c2ccccc2F)CCN(CC(c2ccccc2)c2ccccc2)C1=O` [Compound 194, (E)-N-(((3S,5S)-1-(2,2-diphenylethyl)-3-(3-guanidinopropyl)-2-oxo-1,4-diazepan-5-yl)methyl)-3-(2-fluorophenyl)acrylamide], for which the half-maximal inhibitory concentration (IC50) is < 100 nM. Next, `Cc1ccc(/C=C/C(=O)NC[C@@H]2CCN(CC(c3ccccc3)c3ccccc3)C(=O)[C@H](CCCNC(=N)N)N2)cc1` [Compound 171, (E)-N-(((3S,5S)-1-(2,2-diphenylethyl)-3-(3-guanidinopropyl)-2-oxo-1,4-diazepan-5-yl)methyl)-3-p-tolylacrylamide]: < 100 nM; `NCCC[C@@H]1N[C@H](CNC(=O)/C=C/c2ccc3ccccc3c2)CCN(CC(c2ccccc2)c2ccccc2)C1=O` [Compound 235, (E)-N-(((3S,5S)-3-(3-aminopropyl)-1-(2,2-diphenylethyl)-2-oxo-1,4-diazepan-5-yl)methyl)-3-(naphthalen-2-yl)acrylamide]: < 1000 nM. To `Cc1ccc(C(=O)NC[C@@H]2CCN(CC(c3ccccc3)c3ccccc3)C(=O)[C@H](CCN)N2)cc1C` [Compound 281, N-(((3S,5S)-3-(2-aminoethyl)-1-(2,2-diphenylethyl)-2-oxo-1,4-diazepan-5-yl)methyl)-3,4-dimethylbenzamide] belongs < 1000 nM; to `N=C(N)NCCC[C@@H]1N[C@H](CNC(=O)/C=C/c2c(F)cccc2F)CCN(CC(c2ccccc2)c2ccccc2)C1=O` [Compound 208, (E)-3-(2,6-difluorophenyl)-N-(((3S,5S)-1-(2,2-diphenylethyl)-3-(3-guanidinopropyl)-2-oxo-1,4-diazepan-5-yl)methyl)acrylamide], < 100 nM; to `Cc1cc(C)n(-c2ccc(C(=O)NC[C@@H]3CCN(CC(c4ccccc4)c4ccccc4)C(=O)[C@H](CCCN)N3)cc2)n1` [Compound 243, N-(((3S,5S)-3-(3-aminopropyl)-1-(2,2-diphenylethyl)-2-oxo-1,4-diazepan-5-yl)methyl)-4-(3,5-dimethyl-1H-pyrazol-1-yl)benzamide], < 1000 nM.

As for `CCC(CC)CN1CC[C@@H](CNC(=O)c2ccc(Cl)c(F)c2)N[C@@H](CCN)C1=O` [Compound 351, N-(((3S,5S)-3-(2-aminoethyl)-1-(2-ethylbutyl)-2-oxo-1,4-diazepan-5-yl)methyl)-4-chloro-3-fluorobenzamide], the IC50 is < 10000 nM. To `N=C(N)NCCC[C@@H]1N[C@H](CNC(=O)c2ccc3cc(F)ccc3c2)CCN(CC(c2ccccc2)c2ccccc2)C1=O` [Compound 188, N-(((3S,5S)-1-(2,2-diphenylethyl)-3-(3-guanidinopropyl)-2-oxo-1,4-diazepan-5-yl)methyl)-6-fluoro-2-naphthamide] belongs < 100 nM; to `CCN(CC)CC[C@@H]1N[C@H](CNC(=O)c2ccc3cc(F)ccc3c2)CCN(CC(c2ccccc2)c2ccccc2)C1=O` [Compound 25, N-(((3S,5S)-3-(2-(diethylamino)ethyl)-1-(2,2-diphenylethyl)-2-oxo-1,4-diazepan-5-yl)methyl)-6-fluoro-2-naphthamide], < 100 nM; to `NCC[C@@H]1N[C@H](CNC(=O)c2ccc3cc(F)ccc3c2)CCN(CC(c2ccccc2)c2ccccc2)C1=O` [Compound 31, N-(((3S,5S)-3-(2-aminoethyl)-1-(2,2-diphenylethyl)-2-oxo-1,4-diazepan-5-yl)methyl)-6-fluoro-2-naphthamide], < 1000 nM. To `CN1[C@H](CNC(=O)/C=C/c2ccc(F)cc2)CCN(CC(c2ccccc2)c2ccccc2)C(=O)[C@@H]1CCCN` [Compound 258, (E)-N-(((3S,5S)-3-(3-aminopropyl)-1-(2,2-diphenylethyl)-4-methyl-2-oxo-1,4-diazepan-5-yl)methyl)-3-(4-fluorophenyl)acrylamide] belongs < 1000 nM.

For `O=C(NCC[C@@H]1CCN(CC(c2ccccc2)c2ccccc2)C(=O)[C@H](CCN2CCCCC2)N1)c1ccccc1` [Compound 311, N-(2-((3S,5R)-1-(2,2-diphenylethyl)-2-oxo-3-(2-(piperidin-1-yl)ethyl)-1,4-diazepan-5-yl)ethyl)benzamide], the IC50 was < 10000 nM. In the case of `N=C(N)NCCC[C@@H]1N[C@H](CNC(=O)/C=C/c2c(F)cccc2Cl)CCN(CC(c2ccccc2)c2ccccc2)C1=O` [Compound 209, (E)-3-(2-chloro-6-fluorophenyl)-N-(((3S,5S)-1-(2,2-diphenylethyl)-3-(3-guanidinopropyl)-2-oxo-1,4-diazepan-5-yl)methyl)acrylamide], the half-maximal inhibitory concentration (IC50) is < 100 nM. To `N=C(N)NCCC[C@@H]1N[C@H](CNC(=O)c2cnc3ccccc3c2)CCN(CC(c2ccccc2)c2ccccc2)C1=O` [Compound 112, N-(((3S,5S)-1-(2,2-diphenylethyl)-3-(3-guanidinopropyl)-2-oxo-1,4-diazepan-5-yl)methyl)quinoline-3-carboxamide] belongs < 100 nM.

As for `CCC(CC)CN1CC[C@@H](CNC(=O)c2ccc3ccccc3c2)N[C@@H](CCN)C1=O` [Compound 54, N-(((3S,5S)-3-(2-aminoethyl)-1-(2-ethylbutyl)-2-oxo-1,4-diazepan-5-yl)methyl)-2-naphthamide], the IC50 was < 1000 nM. Turning to `Cc1ccc(C(=O)NC[C@@H]2CCN(CC(c3ccccc3)c3ccccc3)C(=O)[C@H](CCCN)N2)cc1C` [Compound 223, N-(((3S,5S)-3-(3-aminopropyl)-1-(2,2-diphenylethyl)-2-oxo-1,4-diazepan-5-yl)methyl)-3,4-dimethylbenzamide], the IC50 was < 1000 nM.

Consider `O=C(NC[C@@H]1CCN(CC(c2ccccc2)c2ccccc2)C(=O)[C@H](CCN2CCCCC2)N1)c1ccc(Cl)c(Cl)c1` [Compound 284, 3,4-dichloro-N-(((3S,5S)-1-(2,2-diphenylethyl)-2-oxo-3-(2-(piperidin-1-yl)ethyl)-1,4-diazepan-5-yl)methyl)benzamide], for which the IC50 is < 10 nM.

In the case of `N=C(N)NCCC[C@@H]1N[C@H](CNC(=O)Cc2ccc(Cl)cc2Cl)CCN(CC(c2ccccc2)c2ccccc2)C1=O` [Compound 155, 2-(2,4-dichlorophenyl)-N-(((3S,5S)-1-(2,2-diphenylethyl)-3-(3-guanidinopropyl)-2-oxo-1,4-diazepan-5-yl)methyl)acetamide], the IC50 is < 1000 nM.

For the molecule `CCC(CC)CN1CC[C@@H](CNC(=O)c2ccc(Cl)c(Cl)c2)N[C@@H](CCN2CCCCC2)C1=O` [Compound 349, 3,4-dichloro-N-(((3S,5S)-1-(2-ethylbutyl)-2-oxo-3-(2-(piperidin-1-yl)ethyl)-1,4-diazepan-5-yl)methyl)benzamide], the IC50 is < 100 nM. To `N=C(N)NCCC[C@@H]1N[C@H](CNS(=O)(=O)c2ccc3ccccc3c2)CCN(CC(c2ccccc2)c2ccccc2)C1=O` [Compound 50, N-(((3S,5S)-1-(2,2-diphenylethyl)-3-(3-guanidinopropyl)-2-oxo-1,4-diazepan-5-yl)methyl)-2-naphthalene-2-sulfonamide] belongs < 10000 nM; to `N=C(N)NCCC[C@@H]1N[C@H](CNC(=O)c2ccc(Cl)cc2Cl)CCN(CC(c2ccccc2)c2ccccc2)C1=O` [Compound 136, 2,4-dichloro-N-(((3S,5S)-1-(2,2-diphenylethyl)-3-(3-guanidinopropyl)-2-oxo-1,4-diazepan-5-yl)methyl)benzamide], < 100 nM; to `NCCC[C@@H]1N[C@H](CNC(=O)c2cc(-c3ccco3)on2)CCN(CC(c2ccccc2)c2ccccc2)C1=O` [Compound 241, N-(((3S,5S)-3-(3-aminopropyl)-1-(2,2-diphenylethyl)-2-oxo-1,4-diazepan-5-yl)methyl)-5-(furan-2-yl)isoxazole-3-carboxamide], < 1000 nM.

Values taken from patent EP2257297B1, “COMPOUNDS FOR USE IN THE TREATMENT OF ACNE, SEBORRHOEA AND SEBHORROEIC DERMATITIS, OR FOR REDUCING SEBUM SECRETION” (priority 2008, dated 2009).
